Among the test systems are SK-OV-3; HOP-92; CAKI-1; SW-620; A549; HCC 2998; RPMI-8226; HCT-15; OVCAR-8; KM12; SF-295; HOP-62; HT-29; Hs-578T; IGROV-1; SK-MEL-5; M14; Malme-3M; SK-MEL-2; MOLT-4.
Holding throughout (assay): DTP human tumour cell line panel, 48 h

This note sets out measurements from ChEMBL document CHEMBL1201862, “PubChem BioAssay data set” (2004).

Each structure is given as a SMILES string.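 Interpolation was linear, between the two tested concentrations surrounding the appropriate level; five concentrations were tested over 48 hours in 96-well plates. GI50 = concentration required for 50% inhibition of growth.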 The source made the active and inactive calls. Rule as the data show it: active = GI50 up to about 1.1 µM and inactive = higher. A value given as a limit tells only on which side of the number the result lay.

One may read the GI50 as the concentration giving 50% growth inhibition. Regarding `Cc1ccc(-c2ccc3c(c2)Sc2ccccc2O3)n1C`, the GI50 in the assay with SK-OV-3 was 0.536 µM (active); in the assay on HOP-92, 19.8 µM (inactive); with CAKI-1, 0.303 µM (active); with SW-620, 0.264 µM (active); in the assay on A549, 0.675 µM (active); in the assay with HCC 2998 it was 0.171 µM (active). For the same molecule, the GI50 in the assay with RPMI-8226 was 0.179 µM (active); in the assay on HCT-15, 0.143 µM; in the assay with OVCAR-8, 0.693 µM (active); with KM12, 0.257 µM (active); with SF-295, 0.165 µM (active); in the assay on HOP-62, 0.614 µM (active). Besides, the GI50 is 0.213 µM (active) with HT-29; 0.604 µM (active) in the assay on Hs-578T; 0.232 µM (active) in the assay on IGROV-1; 0.356 µM (active) with SK-MEL-5; 0.371 µM (active) in the assay on M14; 0.0984 µM (active) in the assay with Malme-3M. Moreover, the GI50 in the assay with SK-MEL-2 is 0.13 µM (active); in the assay on MOLT-4 it was 0.822 µM (active).
On to `CNC(=O)CCCNC(=O)CCCC(=O)N(C)C`, for which the GI50 is > 100 µM (inactive) in the assay with SK-OV-3; > 100 µM (inactive) in the assay on HOP-92; > 100 µM (inactive) in the assay with CAKI-1; 45.5 µM (inactive) with SW-620; > 100 µM (inactive) in the assay with A549; > 100 µM (inactive) in the assay with HCC 2998. Also, the GI50 is > 100 µM (inactive) in the assay with RPMI-8226; > 100 µM in the assay with HCT-15; > 100 µM (inactive) in the assay on OVCAR-8; > 100 µM (inactive) in the assay with KM12; > 100 µM (inactive) in the assay with SF-295; > 100 µM (inactive) in the assay with HOP-62. Also, the GI50 in the assay with HT-29, in the assay on Hs-578T, in the assay on IGROV-1, with SK-MEL-5, in the assay with M14 and in the assay on Malme-3M was > 100 µM (inactive) in each case. Also, the GI50 in the assay with SK-MEL-2 and in the assay with MOLT-4 was > 100 µM (inactive) in each case.
In the case of `CCCCC(=O)OC[n+]1ccc2c(C)c3[nH]c4ccc(OC)cc4c3c(C)c2c1`, the concentration for 50% growth inhibition (GI50) in the assay with SK-OV-3 was 0.656 µM (active); in the assay on HOP-92, 1.23 µM (inactive); in the assay on CAKI-1 it was 1.02 µM (active); in the assay with SW-620, 0.14 µM (active); with A549 it was 0.308 µM (active); in the assay on HCC 2998, 0.512 µM (active). Further, the 50% growth inhibitory concentration (GI50) with RPMI-8226 was 0.0675 µM (active); with HCT-15 it was 0.166 µM; in the assay on OVCAR-8, 0.171 µM (active); with KM12, 0.412 µM (active); in the assay on SF-295, 0.356 µM (active); with HOP-62 it was 0.47 µM (active). Besides, the GI50 in the assay with HT-29 is 0.243 µM (active); with Hs-578T, 1.07 µM (active); in the assay on IGROV-1 it was 0.284 µM (active); in the assay on SK-MEL-5, 1.22 µM (inactive); with M14, 1.04 µM (active); in the assay on Malme-3M, 1.16 µM (inactive). The GI50 is 2.32 µM (inactive) in the assay with SK-MEL-2 and 0.0396 µM (active) in the assay with MOLT-4.
As for `Brc1ccc2c(-c3nc(-c4c[nH]c5ccc(Br)cc45)cs3)c[nH]c2c1`, the GI50 is 15.4 µM (inactive) with SK-OV-3; 3.44 µM (inactive) in the assay with HOP-92; 4.03 µM (inactive) with CAKI-1; 4.61 µM (inactive) in the assay on SW-620; 4.14 µM (inactive) in the assay with A549; 2.48 µM (inactive) in the assay with HCC 2998. For the same molecule, the GI50 in the assay with RPMI-8226 is 3.43 µM (inactive); in the assay on HCT-15, 3.39 µM; in the assay on OVCAR-8 it was 7.14 µM (inactive); with KM12, 2.62 µM (inactive); in the assay on SF-295, 3.92 µM (inactive); in the assay on HOP-62, 11.7 µM (inactive). Also, the GI50 in the assay with HT-29 is 1.86 µM (inactive); in the assay with Hs-578T, 7.21 µM (inactive); in the assay with IGROV-1, 2.99 µM (inactive); with SK-MEL-5, 4.51 µM (inactive); with M14, 3.92 µM (inactive); in the assay on Malme-3M, 4.24 µM (inactive). The GI50 with SK-MEL-2 was 6.25 µM (inactive); with MOLT-4 it was 2.46 µM (inactive).
Consider `CC(C)(C)C(O)CC(O)(C(F)(F)F)C(F)(F)F` (stereo not given), for which the GI50 with SK-OV-3, in the assay with HOP-92, with CAKI-1, in the assay with SW-620, in the assay on A549 and with HCC 2998 was > 100 µM (inactive) in each case. Besides, the GI50 was > 100 µM (inactive) in the assay with RPMI-8226; > 100 µM in the assay with HCT-15; > 100 µM (inactive) in the assay on OVCAR-8; > 100 µM (inactive) in the assay with KM12; > 100 µM (inactive) in the assay with SF-295; > 100 µM (inactive) in the assay on HOP-62. Also, the GI50 with HT-29, in the assay on Hs-578T, in the assay on IGROV-1, with SK-MEL-5, with M14 and in the assay with Malme-3M was > 100 µM (inactive) in each case. The GI50 in the assay with SK-MEL-2 and in the assay with MOLT-4 was > 100 µM (inactive) throughout.
For the molecule `O=c1cc(/C=C/c2ccc(O)c(O)c2)oc(/C=C/c2ccc(O)c(O)c2)c1`, the GI50 in the assay with SK-OV-3 was 9.02 µM (inactive); with HOP-92 it was 2.48 µM (inactive); in the assay on CAKI-1, 3.37 µM (inactive); in the assay on SW-620, 4.83 µM (inactive); in the assay with A549, 13.4 µM (inactive); in the assay with HCC 2998, 2.49 µM (inactive). Also, the GI50 in the assay on RPMI-8226 is 6.58 µM (inactive); in the assay with HCT-15, 5.68 µM; with OVCAR-8, 4.4 µM (inactive); in the assay with KM12, 4.37 µM (inactive); in the assay on SF-295, 9.06 µM (inactive); with HOP-62, 7.53 µM (inactive). Also, the GI50 in the assay with HT-29 is 7.91 µM (inactive); with Hs-578T, 4.09 µM (inactive); in the assay on IGROV-1, 4.17 µM (inactive); in the assay on SK-MEL-5, 3.19 µM (inactive); in the assay with M14, 4.52 µM (inactive); with Malme-3M, 5.06 µM (inactive). In addition, the results for the GI50 in the assay on SK-MEL-2 and in the assay on MOLT-4 were 2.65 µM (inactive) and 1.83 µM (inactive), respectively.
As for `O=Cc1ccc(-c2nccc3c2[nH]c2ccccc23)o1`, the GI50 in the assay with SK-OV-3 was 97.7 µM (inactive); with HOP-92, 44.6 µM (inactive); in the assay on CAKI-1, 4.91 µM (inactive); with SW-620, > 100 µM (inactive); in the assay on A549, 73.1 µM (inactive); with HCC 2998, > 91.6 µM (inactive). Besides, the GI50 in the assay with RPMI-8226 was > 81.8 µM (inactive); with HCT-15, > 100 µM; in the assay with OVCAR-8, > 87.1 µM (inactive); with KM12 it was > 100 µM (inactive); in the assay with SF-295, 20.4 µM (inactive); in the assay with HOP-62, 42.8 µM (inactive). Besides, the GI50 in the assay on HT-29 is > 88.1 µM (inactive); in the assay with Hs-578T, 19.4 µM (inactive); with IGROV-1 it was > 73.3 µM (inactive); in the assay on SK-MEL-5 it was 82.2 µM (inactive); in the assay with M14 it was 91.6 µM (inactive); in the assay with Malme-3M it was > 100 µM (inactive). Further, the GI50 with SK-MEL-2 was > 95.5 µM (inactive); in the assay on MOLT-4 it was > 94.8 µM (inactive).
Regarding `O=C1OCOC2(CCCC2)C1c1ccccc1` (stereo not given), the GI50 with SK-OV-3, in the assay on HOP-92, in the assay with CAKI-1, in the assay with SW-620, in the assay with A549 and in the assay with HCC 2998 was > 100 µM (inactive) in each case. The GI50 was > 100 µM (inactive) with RPMI-8226; > 100 µM with HCT-15; > 100 µM (inactive) with OVCAR-8; > 100 µM (inactive) in the assay on KM12; > 100 µM (inactive) in the assay with SF-295; > 100 µM (inactive) with HOP-62. Moreover, the GI50 in the assay with HT-29, in the assay on Hs-578T, with IGROV-1, in the assay on SK-MEL-5, in the assay on M14 and with Malme-3M was > 100 µM (inactive) throughout. The GI50 with SK-MEL-2 and in the assay with MOLT-4 was > 100 µM (inactive) each time.
In the case of `Cn1c(N2CCCC2)c(C=O)c(=O)n(C)c1=O`, the GI50 in the assay with SK-OV-3, in the assay on HOP-92, in the assay with CAKI-1, in the assay on SW-620, with A549 and in the assay with HCC 2998 was > 100 µM (inactive) each time. Also, the GI50 is > 100 µM (inactive) in the assay with RPMI-8226; > 100 µM in the assay on HCT-15; > 100 µM (inactive) with OVCAR-8; > 100 µM (inactive) with KM12; > 100 µM (inactive) in the assay on SF-295; > 100 µM (inactive) in the assay with HOP-62. Further, the GI50 in the assay with HT-29 is > 100 µM (inactive); in the assay on Hs-578T, 91.6 µM (inactive); with IGROV-1, > 100 µM (inactive); with SK-MEL-5, > 100 µM (inactive); in the assay with M14 it was > 100 µM (inactive); in the assay with Malme-3M, 78.5 µM (inactive). The GI50 with SK-MEL-2 and in the assay with MOLT-4 was > 100 µM (inactive) in each case.
As to `CN(C)CCn1c(=O)c2ccc(NCCNCCO)c3c(=O)c4ccccc4n(c1=O)c23`, the 50% growth inhibitory concentration (GI50) is 0.164 µM (active) in the assay with SK-OV-3; 0.03 µM (active) in the assay on HOP-92; < 0.0108 µM (active) in the assay with CAKI-1; 0.027 µM (active) in the assay on SW-620; < 0.0121 µM (active) with A549; < 0.0329 µM (active) in the assay on HCC 2998. In addition, the GI50 in the assay on RPMI-8226 is < 0.0394 µM (active); with HCT-15, 0.279 µM; with OVCAR-8, 0.0632 µM (active); with KM12 it was 0.249 µM (active); in the assay on SF-295, 0.0469 µM (active); in the assay with HOP-62 it was 0.0287 µM (active). In addition, the GI50 with HT-29 is 0.0853 µM (active); in the assay on Hs-578T, 0.23 µM (active); with IGROV-1, 0.0596 µM (active); with SK-MEL-5, 0.0716 µM (active); in the assay with M14 it was 0.14 µM (active); with Malme-3M it was 0.336 µM (active). Besides, the 50% growth inhibitory concentration (GI50) in the assay with SK-MEL-2 was 0.423 µM (active); in the assay on MOLT-4, < 0.01 µM (active).
